Test results: ChEMBL document CHEMBL4177534, “Discovery and evaluation of 1H-pyrrolo[2,3-b]pyridine based selective and reversible small molecule BTK inhibitors for the treatment of rheumatoid arthritis” (Bioorg Med Chem Lett, 2017)

How the values were obtained:
[1] = Metabolic stability in rat liver microsomes assessed as metabolism rate; assay type: ADME, microsome
[2] = Metabolic stability in mouse liver microsomes assessed as metabolism rate; assay type: ADME, microsome
[3] = target: Tyrosine-protein kinase BTK (Mus musculus, UniProt P35991); assay: Inhibition of C57BL/6J mouse BTK assessed as decrease in anti-mouse IgM antibody stimulated BCR mediated CD69 upregulation preincubated for 30 mins followed by antibody challenge after 18 to 24 hrs by flow cytometry
Tyrosine-protein kinase BTK (Mus musculus, UniProt P35991), sequence (P35991 whole entry): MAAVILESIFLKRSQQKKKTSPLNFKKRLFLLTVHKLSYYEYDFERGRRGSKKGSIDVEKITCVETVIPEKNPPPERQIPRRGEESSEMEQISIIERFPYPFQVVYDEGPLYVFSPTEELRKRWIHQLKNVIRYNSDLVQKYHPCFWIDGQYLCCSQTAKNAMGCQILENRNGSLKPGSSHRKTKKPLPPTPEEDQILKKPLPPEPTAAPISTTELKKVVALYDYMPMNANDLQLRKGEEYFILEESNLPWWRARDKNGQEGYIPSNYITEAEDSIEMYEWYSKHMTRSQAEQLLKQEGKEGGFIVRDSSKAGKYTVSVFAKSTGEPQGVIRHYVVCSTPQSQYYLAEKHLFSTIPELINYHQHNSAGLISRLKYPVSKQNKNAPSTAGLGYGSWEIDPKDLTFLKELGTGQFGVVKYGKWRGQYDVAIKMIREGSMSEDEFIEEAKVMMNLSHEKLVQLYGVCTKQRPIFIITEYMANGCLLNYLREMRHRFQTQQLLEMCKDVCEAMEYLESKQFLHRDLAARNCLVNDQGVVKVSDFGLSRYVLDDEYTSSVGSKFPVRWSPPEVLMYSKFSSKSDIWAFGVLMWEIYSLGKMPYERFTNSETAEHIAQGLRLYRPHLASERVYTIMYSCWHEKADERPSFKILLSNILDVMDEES

[4] = Metabolic stability in human liver microsomes assessed as metabolism rate; assay type: ADME, microsome
[5] = target: Tyrosine-protein kinase BTK (Homo sapiens, UniProt Q06187); assay: Inhibition of recombinant human full length BTK preincubated for 10 mins followed by Tk-biotin peptide substrate addition after 90 mins by TR-FRET assay
Tyrosine-protein kinase BTK (Homo sapiens, UniProt Q06187), sequence (Q06187 whole entry): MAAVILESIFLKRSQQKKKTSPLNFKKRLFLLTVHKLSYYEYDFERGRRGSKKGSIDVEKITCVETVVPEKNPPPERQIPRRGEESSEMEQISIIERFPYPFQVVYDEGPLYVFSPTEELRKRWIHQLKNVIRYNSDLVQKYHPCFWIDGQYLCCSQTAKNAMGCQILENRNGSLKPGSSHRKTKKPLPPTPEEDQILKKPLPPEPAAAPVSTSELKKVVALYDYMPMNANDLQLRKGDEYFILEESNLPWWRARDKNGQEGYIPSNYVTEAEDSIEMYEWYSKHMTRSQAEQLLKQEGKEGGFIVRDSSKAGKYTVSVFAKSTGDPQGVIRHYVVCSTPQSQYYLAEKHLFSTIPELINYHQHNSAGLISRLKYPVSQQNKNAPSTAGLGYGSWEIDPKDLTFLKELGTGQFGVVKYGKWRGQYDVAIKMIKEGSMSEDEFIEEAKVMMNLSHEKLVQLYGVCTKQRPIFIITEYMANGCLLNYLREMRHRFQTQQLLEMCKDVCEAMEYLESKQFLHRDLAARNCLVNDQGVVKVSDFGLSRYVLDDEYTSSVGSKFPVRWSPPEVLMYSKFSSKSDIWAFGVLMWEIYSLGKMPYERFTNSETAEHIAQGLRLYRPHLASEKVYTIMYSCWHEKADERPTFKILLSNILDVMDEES

[6] = Equilibrium aqueous solubility of the compound at pH 4; assay type: physicochemical
[7] = Equilibrium aqueous solubility of the compound at pH 7.4; assay type: physicochemical

Drug metabolism [1]	Drug metabolism [2]	IC50 [3]	Drug metabolism [4]	IC50 [5]	solubility thermodynamic [6]	solubility thermodynamic [7]	Compound
0.15 nmol/min/mg	0.06 nmol/min/mg	5.5 nM	< 0.04 nmol/min/mg				CN1CCN(Cc2ccc(-c3cc4c(-c5cccc(N6CCOc7cc(C8CC8)cc(F)c7C6=O)c5CO)ccnc4[nH]3)nc2)CC1
		14 nM		5.4 nM			CN1CCN(Cc2ccc(-c3cc4c(-c5cccc(N6CCOc7cc(C8CC8)ccc7C6=O)c5CO)ccnc4[nH]3)nc2)CC1
		81 nM		6.8 nM			CC1(O)CCN(Cc2ccc(-c3cc4c(-c5cccc(N6CCOc7cc(C8CC8)ccc7C6=O)c5CO)ncnc4[nH]3)cc2)CC1
< 0.04 nmol/min/mg	0.1 nmol/min/mg	8.3 nM	0.05 nmol/min/mg		< 100 µM	< 20 µM	O=C1c2c(F)cc(C3CC3)cc2OCCN1c1cccc(-c2ccnc3[nH]c(-c4cnn(C5CCN(C6COC6)CC5)c4)cc23)c1CO
		48 nM		6.5 nM			CN1CCN(Cc2ccc(-c3cc4c(-c5cccc(N6CCOc7cc(C8CC8)ccc7C6=O)c5CO)ncnc4[nH]3)cc2)CC1
				21 nM			Cc1c(-c2ncnc3[nH]c(-c4ccc(CN5CCN(C)CC5)cc4)cc23)cccc1N1CCOc2cc(C3CC3)ccc2C1=O
0.09 nmol/min/mg	0.1 nmol/min/mg	75 nM	0.04 nmol/min/mg		< 100 µM	< 20 µM	CC(C)(O)CN1CC=C(c2cc3c(-c4cccc(N5CCOc6cc(C7CC7)cc(F)c6C5=O)c4CO)ccnc3[nH]2)CC1
		59 nM		8.3 nM			O=C1c2ccc(C3CC3)cc2OCCN1c1cccc(-c2ncnc3[nH]c(-c4ccc(CN5CCOCC5)cc4)cc23)c1CO
		36 nM					CN1CCN(c2ccc(-c3cc4c(-c5cccc(N6CCOc7cc(C8CC8)ccc7C6=O)c5CO)ncnc4[nH]3)cc2)CC1
< 0.04 nmol/min/mg	< 0.04 nmol/min/mg	51.2 nM	0.07 nmol/min/mg				N#CCC(=O)N1CC=C(c2cc3c(-c4cccc(N5CCOc6cc(C7CC7)cc(F)c6C5=O)c4CO)ccnc3[nH]2)CC1
		51 nM		2.6 nM			CN1CCC(Oc2ccc(-c3cc4c(-c5cccc(N6CCOc7cc(C8CC8)ccc7C6=O)c5CO)ncnc4[nH]3)cc2)CC1
		54 nM		5.1 nM			CN1CC(Oc2ccc(-c3cc4c(-c5cccc(N6CCOc7cc(C8CC8)ccc7C6=O)c5CO)ncnc4[nH]3)cc2)C1
		32 nM					CN1CCC(n2cc(-c3cc4c(-c5cccc(N6CCOc7cc(C8CC8)ccc7C6=O)c5CO)ncnc4[nH]3)cn2)CC1
0.05 nmol/min/mg	0.09 nmol/min/mg	17.7 nM	0.07 nmol/min/mg	5.5 nM			CS(=O)(=O)N1CC=C(c2cc3c(-c4cccc(N5CCOc6cc(C7CC7)cc(F)c6C5=O)c4CO)ccnc3[nH]2)CC1
0.04 nmol/min/mg	0.04 nmol/min/mg	14.7 nM	< 0.04 nmol/min/mg	1.1 nM			CC1(O)CN(C(=O)N2CC=C(c3cc4c(-c5cccc(N6CCOc7cc(C8CC8)cc(F)c7C6=O)c5CO)ccnc4[nH]3)CC2)C1
0.05 nmol/min/mg	0.05 nmol/min/mg	5.8 nM	0.05 nmol/min/mg				CN(C)C(=O)N1CC=C(c2cc3c(-c4cccc(N5CCOc6cc(C7CC7)cc(F)c6C5=O)c4CO)ccnc3[nH]2)CC1
